These results are taken from patent US7250410B2, “Cyclic nucleotide phosphodiesterase inhibitors, preparation and uses thereof” (Via Pharmaceuticals, Inc., priority 2001, dated 2007).

pIC50: −log10 of the molar value.

The test system of assay [1] is IL1β, IL6 and IL8. Put plainly: IL1β, IL6 and IL8 secretion by LPS-activated mononuclear cells from venous blood. Format: cell-based, human.
In assay [2] the test system is PDE1. The assay can be described thus: Selectivity: inhibition of PDE1, radioenzymatic phosphodiesterase assay. The settings on record: Table 4 Selectivity; compound at 10 μM. Details: PDE1 percentage inhibition at 10 μM: unit: %. Format: biochemical, bovine. As to the method:
(§1) A 3 g segment of bovine aortic media cut into pieces with scissors was homogenized with an ultra-turrax then a potter glass/glass homogenizer in 7 volumes by weight of buffer A containing a protease inhibitor cocktail (20 mM Tris-HCl, 0.25 M saccharose, 2 mM magnesium acetate, 1 mM dithiothreitol, 5 mM EGTA, 2000 U/ml aprotinin, 10 mg/l leupeptin and 10 mg/l soya trypsic inhibitor). The homogenizate was centrifuged at 105,000 g for 1 hour. The supernatant was loaded on a DEAE-Sephacel column (15×1.6 cm) pre-equilibrated with buffer B (buffer A without the saccharose, EGTA and protease inhibitors). The column was washed until there was no detectable absorption at 280 nm, then eluted with a linear gradient of NaCl (0–0.5 M) in buffer B. 3-ml fractions were collected and enzyme activity was determined under the conditions described hereinafter to localize the different enzymes PDE1, PDE3, PDE4 and PDE5, which were aliquoted and frozen at −80° C. (Lugnier et al., Biochem. Phamacol., 35 (1986) 1746–1751). PDE2 was prepared from bovine endothelial cells by the same methods (Lugnier and Schini, Biochem. Pharmacol. 1990, 39; 75–84).
(§2) Cyclic nucleotide phosphodiesterase activity was determined by a radioenzymatic method using tritium-labelled cyclic GMP or AMP (1 μM) as substrate (Lugnier et al., 1986). ^3H-labelled adenosine or guanosine monophosphate formed by hydrolysis of the radiolabelled cyclic nucleotide was then converted to ^3H-labelled adenosine or guanosine in a second reaction with […] in excess. The nucleoside formed was separated from the nucleotides by anion exchange chromatography. Nucleoside radioactivity was determined by liquid scintillation counting. Enzymatic incubations were carried out under conditions allowing no more than 15% hydrolysis of the substrate; each point was performed in duplicate.
(§3) The activity of the compounds was evaluated on other phosphodiesterase isoforms, particularly basal state or calmodulin-activated PDE1 from vascular smooth muscle, basal state or cyclic GMP-activated PDE2 from vascular endothelial cells, PDE3 and PDE5 from vascular smooth muscle.
(§4) The results obtained are presented in Table 4 hereinafter and are expressed as the percentage inhibition of enzymatic activity produced by […] of the tested compound.

Assay [3] has as its target T1, PDE5 (Bos taurus, UniProt Q28156).
T1 construct: localize the different enzymes PDE1, PDE3, PDE4 and PDE5, which were aliquoted and frozen; from tissue; host or cells: bovine aortic media (vascular smooth muscle), DEAE-Sephacel fraction
The assay can be described thus: Selectivity: inhibition of PDE5, radioenzymatic phosphodiesterase assay. It is filed as biochemical, bovine. As to conditions: Table 4 Selectivity; compound at 10 μM; read-out: PDE5 percentage inhibition at 10 μM. The procedure: as §1, §2, §3, §4

For assay [4], the target named is T2, PDE2 (Bos taurus, UniProt P14099).
T2 construct: PDE2 was prepared from bovine endothelial cells by the same methods; endogenous in cells; host or cells: bovine vascular endothelial cells, DEAE-Sephacel fraction
T2 sequence (P14099 1-921): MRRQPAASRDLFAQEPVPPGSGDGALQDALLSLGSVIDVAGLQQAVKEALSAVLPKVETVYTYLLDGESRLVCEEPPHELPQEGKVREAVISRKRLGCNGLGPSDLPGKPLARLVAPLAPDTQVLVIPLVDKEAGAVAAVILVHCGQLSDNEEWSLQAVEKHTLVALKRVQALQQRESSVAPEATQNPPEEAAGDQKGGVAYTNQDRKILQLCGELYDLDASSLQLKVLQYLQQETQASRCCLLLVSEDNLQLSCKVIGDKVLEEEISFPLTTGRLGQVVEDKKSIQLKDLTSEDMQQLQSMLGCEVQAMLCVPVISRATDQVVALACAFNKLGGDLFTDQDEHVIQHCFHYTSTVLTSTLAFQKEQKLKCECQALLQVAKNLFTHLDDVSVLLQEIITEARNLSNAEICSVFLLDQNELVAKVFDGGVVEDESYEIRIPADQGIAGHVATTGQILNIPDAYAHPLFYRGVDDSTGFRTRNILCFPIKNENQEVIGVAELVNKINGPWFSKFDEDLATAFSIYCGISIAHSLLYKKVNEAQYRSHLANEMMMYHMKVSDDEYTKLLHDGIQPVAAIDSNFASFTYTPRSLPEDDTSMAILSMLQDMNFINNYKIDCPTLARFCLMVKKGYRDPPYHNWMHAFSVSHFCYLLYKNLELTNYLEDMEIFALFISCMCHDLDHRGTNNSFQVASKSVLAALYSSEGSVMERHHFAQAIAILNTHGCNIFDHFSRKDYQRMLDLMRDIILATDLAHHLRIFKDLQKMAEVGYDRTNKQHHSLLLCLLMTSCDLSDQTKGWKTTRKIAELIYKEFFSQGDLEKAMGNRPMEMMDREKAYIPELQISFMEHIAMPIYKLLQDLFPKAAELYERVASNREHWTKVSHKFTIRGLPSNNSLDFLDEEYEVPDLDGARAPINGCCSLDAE
Put plainly: Selectivity: inhibition of PDE2, radioenzymatic phosphodiesterase assay. It is filed as biochemical, bovine. The settings on record: Table 4 Selectivity; compound at 10 μM; read-out: PDE2 percentage inhibition at 10 μM. As to the method: as §1, §2, §3, §4

In assay [5] the test system is TNFα. The assay can be described thus: TNFα production by LPS-activated mononuclear cells from venous blood (ELISA). It is filed as cell-based. The settings on record: Homo sapiens. As to the method: Compounds according to the invention were assessed for anti-inflammatory properties on mononuclear cells from venous blood of healthy donors (n=4), by a protocol approved by the Alsace No. 1 Ethics Committee. More specifically, the cells were incubated for 24 hours in 24-well plates in the presence of the test compound, after activation by Salmonella Abortis Equi lipopolysaccharide (LPS) (5 pg/ml) (cf. De Groote et al., Cytokine 4, 1992, 239). After incubation, TNFα concentrations were determined in the culture supernatant by an ELISA method (Antibody Solutions, Half Moon Bay, Calif., USA).

Take `CCOc1cc2c(cc1OC)C(c1ccccc1)=NCC(=O)N2C` [IIda, 8-ethoxy-7-methoxy-1-methyl-5-phenyl-1,3-dihydro-2H-1,4-benzodiazepin-2-one]: in assay [1] (compound at 1 μM), the “IL1β, IL6 and IL8 secretion levels” value is “not at all altered”. The “PDE1 percentage inhibition at 10 μM” value in assay [2] was 26%. The inhibition at 10 µM in assay [3] was 14%; in assay [4], 7%. Also, in assay [5] (24 h, read-out: inhibition of TNFα production), the inhibition at 1 µM amounted to 100%.
`CCOc1cc2c(cc1OCC)C(c1ccccc1)=NCC(=O)N2` [XXIIag, 7,8-diethoxy-5-phenyl-1,3-dihydro-2H-1,4-benzodiazepin-2-one]: the “inhibition of the secretion of IL1β” value in assay [1] (in words) was “capable of inhibiting the secretion”. Moreover, in assay [2], the “PDE1 percentage inhibition at 10 μM” value amounted to 46%. Moreover, the inhibition at 10 µM in assay [3] was 35%; in assay [4], 17%. Further, in assay [5] (read-out: anti-TNFα activity IC50), the pIC50 is 6.00 to 7.00.
